Data from patent EP0407137B1, “Benzazine compounds and pharmaceutical uses thereof” (priority 1989, dated 1991).
Where a name gives a salt, the structure may show the parent alone.

Legend:
5-HT₃ receptor = experiment: Antagonistic effect against von Bezold-Jarish reflex caused by serotonin in anesthetized rats; type: in vivo, Male Wistar rats; details: i.v., 5 minutes before serotonin (20 µg/kg i.v.), dose required to antagonize the reflex bradycardia by 50%
Procedure: 5-HT₃ receptor blocking effects of the compounds of the present invention were evaluated based on the antagonistic effects against van Bezold-Jarish reflex caused by administering serotonin to anesthetized rats as an index according to Forzard's method described in Naunyuschmiedeberg's Arch. Pharmacol., vol.326, pp36, 1984.
Male Wistar rats weighing 350-450 g were anesthetized with an intraperitoneal injection of 1.25g/kg of urethane. The left jugular vein was cannulated for the intravenous injection and the left femoral […] was cannulated for the measurement of blood pressure and heart rate. Serotonin (20 µg/kg) was intravenously injected, and the compounds of the present invention were intravenously injected 5 minutes before the challenge with serotonin. The antagonistic activity of the compounds of the present invention against the caused reflex bradycardia was measured and the effective dose (ED₅₀, µg/kg), the dose required to antagonize the maximum activity by 50%, was determined.

[1] = biological target: T1, serotonin 1A (5-HT1A) receptor (Rattus norvegicus, UniProt P19327); experiment: Serotonin binding test (tritium 8-OH-DPAT, crude synaptosome fraction from hippocampus); parameters: species or system Wistar rat; details: tritium 8-OH-DPAT 0.2 nM, 37°C for 12 minutes, rat hippocampus synaptosomes; read-out: Serotonin binding test IC₅₀
T1 sequence (P19327 1-422): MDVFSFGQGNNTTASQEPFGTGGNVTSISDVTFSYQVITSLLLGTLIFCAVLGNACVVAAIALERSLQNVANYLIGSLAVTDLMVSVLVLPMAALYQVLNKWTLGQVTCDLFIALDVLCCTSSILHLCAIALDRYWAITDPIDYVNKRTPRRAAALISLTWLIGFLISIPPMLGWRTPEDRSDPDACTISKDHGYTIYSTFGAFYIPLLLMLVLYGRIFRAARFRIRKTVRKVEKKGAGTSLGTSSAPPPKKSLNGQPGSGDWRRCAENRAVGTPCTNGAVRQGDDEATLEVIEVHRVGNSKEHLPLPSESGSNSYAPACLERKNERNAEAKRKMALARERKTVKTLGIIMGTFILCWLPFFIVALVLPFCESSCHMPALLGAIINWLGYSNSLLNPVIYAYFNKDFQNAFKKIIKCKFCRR
Procedure: Specific serotonin 1A (5-HT1A) receptor binding test was conducted in accordance with the manner described in Journal of the Neurochemistry, vol.44, page 1685, 1985.
Crude synaptosome fraction was separated from hippocampus of 9 to 10 weeks-aged Wistar rat and suspended into 50 mM tris-hydrochloric acid buffer solution (pH 7.4) containing 1 mM manganese chloride.
Next, to the resulting synaptosome suspension were added the test compound of the present invention at several concentrations and tritium 8-OH-DPAT at the terminal concentration of 0.2 nM, and the mixture was allowed to react at 37°C for 12 minutes. After completion of the reaction, the reaction mixture was suction filtered through Whatman GF/B glass filter. The glass filter was washed with 50 mM tris-hydrochloric acid buffer solution (pH 7.4), and then the radioactivity of the residue remaining on the glass filter was measured by liquid scintillation counter. Non-specific binding was determined under the presence of 10⁻⁵M serotonin (5-HT). 50% Inhibition concentration (IC₅₀) of test compound was graphically determined.

dopamine D₂ receptor = biological target: T2, dopamine D₂ receptor (Rattus norvegicus, UniProt P61169); experiment: Dopamine D₂ binding test (tritium Spiperone, crude synaptosome fraction from corpus striatum); parameters: species or system Wistar rats; details: tritium Spiperone 0.2 nM, 37°C for 20 minutes, rat corpus striatum synaptosomes; read-out: Dopamine D₂ binding test IC₅₀
T2 construct: Crude synaptosome fraction was separated from corpus striatum of 9 to 10 weeks-aged Wistar rats; from tissue; host or cells: rat corpus striatum, crude synaptosome fraction
Procedure: Crude synaptosome fraction was separated from corpus striatum of 9 to 10 weeks-aged Wistar rats and suspended into 50 mM tris-hydrochloric acid buffer solution (pH 7.1) containing 120 mM sodium chloride, 5 mM potassium chloride, 2 mM calcium chloride, 1 mM magnesium chloride, 10 µM pargyline and 0.1% ascorbic acid. Next, to the resulting synaptosome suspension were added the test compound of the present invention at several concentrations and tritium Spiperone at the terminal concentration of 0.2 nM, and the mixture was allowed to react at 37°C for 20 minutes. After completion of the reaction, the reaction mixture was suction filtered through Whatman GF/B glass filter. The glass filter was washed with 50 mM tris-hydrochloric acid buffer solution (pH 7.7), and then the radioactivity of the residue remaining on the glass filter was measured by liquid scintillation counter. Non-specific binding was determined under the presence of […]. 50% Inhibition concentration (IC₅₀) of the test compound was graphically determined.

T2 sequence (P61169 whole entry): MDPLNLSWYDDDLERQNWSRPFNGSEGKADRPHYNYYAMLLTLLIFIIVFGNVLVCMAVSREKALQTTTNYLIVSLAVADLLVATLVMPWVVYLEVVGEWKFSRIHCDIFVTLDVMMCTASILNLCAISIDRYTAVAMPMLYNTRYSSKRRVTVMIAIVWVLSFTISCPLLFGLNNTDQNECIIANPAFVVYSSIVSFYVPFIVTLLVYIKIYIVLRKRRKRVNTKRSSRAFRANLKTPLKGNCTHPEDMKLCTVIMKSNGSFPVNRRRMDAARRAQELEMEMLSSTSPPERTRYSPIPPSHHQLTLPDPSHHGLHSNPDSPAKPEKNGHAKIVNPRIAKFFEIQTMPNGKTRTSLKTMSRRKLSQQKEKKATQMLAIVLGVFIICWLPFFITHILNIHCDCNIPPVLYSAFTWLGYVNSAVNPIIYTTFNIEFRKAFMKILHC

| IC50 [1] [nM] | IC50 (dopamine D₂ receptor) [nM] | Structure (SMILES) | ED₅₀ (5-HT₃ receptor) [µg/kg] |
| --- | --- | --- | --- |
| – | – | CN1CCOc2c(C(=O)NC3CN4CCC3CC4)cc(Cl)cc21.Cl (centres unmarked) [Example 1, 6-chloro-4-methyl-N-(3-quinuclidinyl)-3,4-dihydro-2H-1,4-benzoxazine-8-carboxamide hydrochloride] | 0.28 |
| – | – | CN1CC(C)(C)Oc2c(C(=O)NC3CN4CCC3CC4)cc(Cl)cc21.Cl (centres unmarked) [Example 3, 6-chloro-2,2,4-trimethyl-N-(3-quinuclidinyl)-3,4-dihydro-2H-1,4-benzoxazine-8-carboxamide hydrochloride] | 0.12 |
| – | – | CN1CC(C)(C)Oc2c(C(=O)N[C@H]3CN4CCC3CC4)cc(Cl)cc21.Cl [Example 4, (R)-6-chloro-2,2,4-trimethyl-N-(3-quinuclidinyl)-3,4-dihydro-2H-1,4-benzoxazine-8-carboxamide hydrochloride] | 0.17 |
| – | – | CN1CC(C)(C)Oc2c(C(=O)N[C@@H]3CN4CCC3CC4)cc(Cl)cc21.Cl [Example 5, (S)-6-chloro-2,2,4-trimethyl-N-(3-quinuclidinyl)-3,4-dihydro-2H-1,4-benzoxazine-8-carboxamide hydrochloride] | 0.11 |
| – | – | CN1CCOc2c(C(=O)N[C@H]3CN4CCC3CC4)cc(Cl)cc21 [Example 7, (R)-6-chloro-4-methyl-N-(3-quinuclidinyl)-3,4-dihydro-2H-1,4-benzoxazine-8-carboxamide] | 0.73 |
| 750 | – | CCN1CCCC1CNC(=O)c1cc(Cl)cc2c1OCCN2C (centres unmarked) [Example 13, 6-chloro-4-methyl-N-[(1-ethyl-2-pyrrolidinyl)methyl]-3,4-dihydro-2H-1,4-benzoxazine-8-carboxamide hydrochloride] | – |
| 62 | – | CCCCN1CCCC1CNC(=O)c1cc(Cl)cc2c1OCCN2C (centres unmarked) [Example 14, 6-chloro-4-methyl-N-[(1-butyl-2-pyrrolidinyl)-methyl]-3,4-dihydro-2H-1,4-benzoxazine-8-carboxamide hydrochloride] | – |
| 24 | 690 | CCCCCCCCCN1CCC[C@@H]1CNC(=O)c1cc(Cl)cc2c1OCCN2C [Example 38, (R)-(+)-6-chloro-4-methyl-N-[(1-nonyl-2-pyrrolidinyl)methyl]-3,4-dihydro-2H-1,4-benzoxazine-8-carboxamide] | – |
| 420 | 630 | CCCCN1CCC[C@@H]1CNC(=O)c1cc(Cl)cc2c1OCCN2C [Example 39, (R)-(+)-N-[(1-butyl-2-pyrrolidinyl)methyl]-6-chloro-4-methyl-3,4-dihydro-2H-1,4-benzoxazine-8-carboxamide] | – |
